Here are results for seven compounds from patent US12692238B2, “Substituted pyridazinone herbicides” (FMC CORPORATION, priority 2020, dated 2026).

Type in all cases: in vivo
Test [1] has as its system wheat (Triticum aestivum). The test is described as follows: Test A postemergence, wheat. To be noted: Triticum aestivum, post-emergence, 240 h, 10 days, read-out: Plant response rating, Wheat; for plant injury at 31 g/ha: 31 g ai/ha, postemergence, 0 to 100 scale (0 no effect, 100 complete control); for plant injury at 125 g/ha: Postemergence, 125 g ai/ha, 0 to 100 scale. In outline:
(§1)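 Herbicidal response was scored visually after ten greenhouse days, comparing treated pots with untreated ones on a 0–100 control scale. Preemergence application was a directed soil spray; postemergence plants were treated at 2 to 10 cm height.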

Another test relates to corn (Zea mays). The test is described as follows: Test A postemergence, corn. To be noted: Zea mays, post-emergence, 240 h, 10 days; for Corn plant response rating (crop injury, 0 = no effect, 100 = complete kill) at 31 g/ha: 31 g ai/ha; for Corn plant response rating (crop injury, 0 = no effect, 100 = complete kill) at 125 g/ha: 125 g ai/ha. In outline:
as §1

The subject of test [2] is kochia (Bassia scoparia). Nature of the test: Test A preemergence, kochia. As to conditions: Bassia scoparia, pre-emergence, 240 h, 0 to 100 scale, 10 days, read-out: Plant response rating, Kochia; for pest or weed control at 31 g/ha: 31 g ai/ha; for pest or weed control at 125 g/ha: 125 g ai/ha. The procedure, abridged:
as §1

Test [3] has as its system foxtail, green (green foxtail, Setaria viridis). Nature of the test: Test A preemergence, foxtail, green. As to conditions: 0 to 100 scale, 10 days. An excerpt:
(§2) Seeds of plant species selected from barnyardgrass (Echinochloa crus-galli), blackgrass (Alopecurus myosuroides), corn (Zea mays), foxtail, giant (giant foxtail, Setaria faberi), foxtail, green (green foxtail, Setaria viridis), goosegrass (Eleusine indica), kochia (Bassia scoparia), oat, wild (wild oat, Avena fatua), palmer amaranth (pigweed, palmer, Amaranthus palmeri), redroot pigweed (Amaranthus retroflexus), ragweed (common ragweed, Ambrosia artemisiifolia), ryegrass, Italian (Italian ryegrass, Lolium multiflorum), and soybean (Glycine max) were planted into a blend of loam soil and sand and treated preemergence with a directed soil spray using test chemicals formulated in a non-phytotoxic solvent mixture which included a surfactant.
(§3) At the same time, plants selected from these crop and weed species and also wheat (Triticum aestivum), galium (catchweed bedstraw, Galium aparine) and horseweed (Erigeron canadensis) were planted in pots containing the same blend of loam soil and sand and treated with postemergence applications of test chemicals formulated in the same manner. Plants ranged in height from 2 to 10 cm and were in the one- to two-leaf stage for the postemergence treatment. Treated plants and untreated controls were maintained in a greenhouse for 10 days, after which time all treated plants were compared to untreated controls and visually evaluated for injury. Plant response ratings, summarized in Table A, are based on a 0 to 100 scale where 0 is no effect and 100 is complete control. A dash (-) response means no test result.

Test [4] has as its system kochia (Bassia scoparia). The test is described as follows: Test A postemergence, kochia. As to conditions: Bassia scoparia, post-emergence, 240 h, 10 days, read-out: Plant response rating, Kochia; for pest or weed control at 31 g/ha: 31 g ai/ha, postemergence, 0 to 100 scale (0 no effect, 100 complete control); for pest or weed control at 125 g/ha: Postemergence, 125 g ai/ha, 0 to 100 scale. The procedure, abridged: as §1

In test [5] the test system is foxtail, green (green foxtail, Setaria viridis). The test is described as follows: Test A postemergence, foxtail, green. As to conditions: 10 days.
Source text: as §2, §3

Setting [6] is: 31 g ai/ha, postemergence, 0 to 100 scale (0 no effect, 100 complete control).
The mark [7] stands for this setting: Postemergence, 125 g ai/ha, 0 to 100 scale.

Consider `CC(=O)OCOc1c(Cl)nn(C)c(=O)c1-c1c(C)sc2cccc(Cl)c12` [Compound 1, 5-[(acetyloxy)methoxy]-6-chloro-4-(4-chloro-2-methylbenzo[b]thien-3-yl)-2-methyl-3(2H)-pyridazinone], for which the plant injury at 31 g/ha in test [1] was 0%. Besides, the plant injury at 125 g/ha in test [1] was 0%. Further, the Corn plant response rating (crop injury, 0 = no effect, 100 = complete kill) at 31 g/ha in the test with corn (Zea mays) (Postemergence, 0 to 100 scale) came out at 0%. In the test on corn (Zea mays) (Postemergence, 0 to 100 scale), this compound displayed a Corn plant response rating (crop injury, 0 = no effect, 100 = complete kill) at 125 g/ha of 0%. The pest or weed control at 31 g/ha in the test with kochia (Bassia scoparia) [2] is 0%; in the test on kochia (Bassia scoparia) [4] it was 10%. In addition, the pest or weed control at 125 g/ha in the test on kochia (Bassia scoparia) [2] is 10%; in the test with kochia (Bassia scoparia) [4], 50%. The “Plant response rating, Foxtail, Green” value in test [3] (31 g ai/ha) came out at 0; in test [3] (125 g ai/ha) it was 10; in test [5] (setting [6]), 0; in test [5] (setting [7]) it was 10.

On to `CC(=O)OCOc1c(C)nn(C)c(=O)c1-c1c(Br)sc2ccc(F)cc12` [Compound 2, 5-[(acetyloxy)methoxy]-4-(2-bromo-5-fluorobenzo[b]thien-3-yl)-2,6-dimethyl-3(2H)-pyridazinone], for which, in test [1], the plant injury at 31 g/ha was found to be 0% and the plant injury at 125 g/ha worked out at 40%. Besides, in the test on corn (Zea mays) (Postemergence, 0 to 100 scale), the Corn plant response rating (crop injury, 0 = no effect, 100 = complete kill) at 31 g/ha turned out to be 0% and the Corn plant response rating (crop injury, 0 = no effect, 100 = complete kill) at 125 g/ha was found to be 30%. Further, in the test on kochia (Bassia scoparia) [2], the pest or weed control at 31 g/ha stood at 20% and the pest or weed control at 125 g/ha worked out at 50%. Moreover, in the test on kochia (Bassia scoparia) [4], the pest or weed control at 31 g/ha turned out to be 70% and the pest or weed control at 125 g/ha is 80%.

Turning to `CC(=O)OCOc1c(Cl)nn(C)c(=O)c1-c1c(C)ccc2ccc(C)cc12` [Compound 3, 5-[(Acetyloxy)methoxy]-6-chloro-4-(2,7-dimethyl-1-naphthalenyl)-2-methyl-3(2H)-pyridazinone], in test [1], the plant injury at 31 g/ha was 0% and the plant injury at 125 g/ha turned out to be 20%. Besides, in the test on corn (Zea mays) (Postemergence, 0 to 100 scale), the Corn plant response rating (crop injury, 0 = no effect, 100 = complete kill) at 31 g/ha worked out at 0% and the Corn plant response rating (crop injury, 0 = no effect, 100 = complete kill) at 125 g/ha was 20%. Also, in the test on kochia (Bassia scoparia) [2], the pest or weed control at 31 g/ha was determined as 10% and the pest or weed control at 125 g/ha was 90%. In the test on kochia (Bassia scoparia) [4], the pest or weed control at 31 g/ha was 60% and the pest or weed control at 125 g/ha came out at 80%.

As for `CC(=O)OCOc1c(Cl)nn(C)c(=O)c1-c1c(C)ccc2ccccc12` [Compound 5, 5-[(acetyloxy)methoxy]-6-chloro-2-methyl-4-(2-methyl-1-naphthalenyl)-3(2H)-pyridazinone], the plant injury at 31 g/ha in test [1] was 10%. For the same compound, the plant injury at 125 g/ha in test [1] is 30%. Further, the Corn plant response rating (crop injury, 0 = no effect, 100 = complete kill) at 31 g/ha in the test with corn (Zea mays) (Postemergence, 0 to 100 scale) is 0%. This compound also came in with a Corn plant response rating (crop injury, 0 = no effect, 100 = complete kill) at 125 g/ha with corn (Zea mays) (Postemergence, 0 to 100 scale) of 10%. In addition, the pest or weed control at 31 g/ha in the test on kochia (Bassia scoparia) [2] came to 40%; with kochia (Bassia scoparia) [4], 30%. The figures for the pest or weed control at 125 g/ha with kochia (Bassia scoparia) [2] and in the test with kochia (Bassia scoparia) [4] were 70% and 60%, respectively. Further, the “Plant response rating, Foxtail, Green” value was determined as 50 in test [3] (31 g ai/ha), 90 in test [3] (125 g ai/ha), 40 in test [5] (setting [6]) and 80 in test [5] (setting [7]).

For `CC(=O)OCOc1c(Cl)nn(C)c(=O)c1-c1c2ccccc2cc2ccccc12` [Compound 10, 5-[(acetyloxy)methoxy]-4-(9-anthracenyl)-6-chloro-2-methyl-3(2H)-pyridazinone], in test [1], the plant injury at 31 g/ha was found to be 0% and the plant injury at 125 g/ha amounted to 0%. In the test on corn (Zea mays) (Postemergence, 0 to 100 scale), this compound came in with a Corn plant response rating (crop injury, 0 = no effect, 100 = complete kill) at 31 g/ha of 10% and a Corn plant response rating (crop injury, 0 = no effect, 100 = complete kill) at 125 g/ha of 20%. In addition, in the test with kochia (Bassia scoparia) [2], the pest or weed control at 31 g/ha worked out at 0% and the pest or weed control at 125 g/ha was determined as 0%. Also, in the test with kochia (Bassia scoparia) [4], the pest or weed control at 31 g/ha stood at 0% and the pest or weed control at 125 g/ha was 10%.

Turning to `CC(=O)OCOc1c(Cl)nn(C)c(=O)c1-c1c2ccccc2c(Cl)c2ccccc12` [Compound 11, 5-[(acetyloxy)methoxy]-6-chloro-4-(10-chloro-9-anthracenyl)-2-methyl-3(2H)-pyridazinone], in test [1], the plant injury at 31 g/ha turned out to be 0% and the plant injury at 125 g/ha stood at 0%. For the same compound, in the test on corn (Zea mays) (Postemergence, 0 to 100 scale), the Corn plant response rating (crop injury, 0 = no effect, 100 = complete kill) at 31 g/ha turned out to be 0% and the Corn plant response rating (crop injury, 0 = no effect, 100 = complete kill) at 125 g/ha is 10%. Besides, in the test with kochia (Bassia scoparia) [2], the pest or weed control at 31 g/ha stood at 0% and the pest or weed control at 125 g/ha is 10%. In the test with kochia (Bassia scoparia) [4], the pest or weed control at 31 g/ha stood at 0% and the pest or weed control at 125 g/ha worked out at 50%.

For `CC(=O)OCOc1c(C)nn(C)c(=O)c1-c1c2cc(C)ccc2cc2ccc(F)cc12` [Compound 24, 5-[(acetyloxy)methoxy]-4-(2-fluoro-7-methyl-9-anthracenyl)-2,6-dimethyl-3(2H)-pyridazinone], in test [1], the plant injury at 31 g/ha was found to be 0% and the plant injury at 125 g/ha is 0%. This compound also registered a Corn plant response rating (crop injury, 0 = no effect, 100 = complete kill) at 31 g/ha in the test on corn (Zea mays) (postemergence, 0 to 100 scale (0 no effect, 100 complete control)) of 10%. Further, in the test on corn (Zea mays) (Postemergence, 0 to 100 scale), the Corn plant response rating (crop injury, 0 = no effect, 100 = complete kill) at 125 g/ha amounted to 20%. Moreover, in the test on kochia (Bassia scoparia) [2], the pest or weed control at 31 g/ha amounted to 70% and the pest or weed control at 125 g/ha worked out at 90%. Also, in the test on kochia (Bassia scoparia) [4], the pest or weed control at 31 g/ha was found to be 90% and the pest or weed control at 125 g/ha stood at 100%.
